Laboratory results reported in patent publication US6451805B1, “Substituted pyrazole derivatives for the treatment of cardiocirculatory diseases” (Bayer Aktiengesellschaft, priority 1999, dated 2002).

Tested on: anaesthetized rats
Assay: Blood pressure measurements in anaesthetized rats
Type: in vivo, rat
Settings: male Wistar rats, oral, dose 10 mg/kg
Method: (§1) To determine the cardiovascular actions, the following investigations were carried out: in in vitro investigations on cells of vascular origin, the influx on guanylate cyclase-dependent cGMP formation was tested with and without NO donor. The anti-aggregatory properties were shown on human platelets stimulated with collagen. The vasorelaxant action was determined in rabbit aortal rings precontracted with phenylephrine. The hypotentive action was investigated in anaesthetized rats.
Male Wistar rats having a body weight of 300-350 g are anaesthetized with thiopental (100 mg/kg i.p.) After tracheotomy, a catheter is inserted in the femoral artery for blood pressure measurement. The substances to be tested are administered orally in various doses by means of stomach tube as a suspension in Tylose solution.

Structure (SMILES) | Max blood pressure fall | Time (of max blood pressure fall)
OCc1ccc(-c2nn(Cc3ccccc3)c3ncccc23)o1 [Example 13, 1-Benzyl-3-(5-hydroxymethyl-2-furyl)-1-H-pyrazolo[3,4-b]pyridine] | −13 mm Hg | 60 min

Same assay, conditions: male Wistar rats, oral, dose 30 mg/kg

Structure (SMILES) | Max blood pressure fall | Time (of max blood pressure fall)
OCc1ccc(-c2nn(Cc3ccccc3)c3ncccc23)o1 [Example 13, 1-Benzyl-3-(5-hydroxymethyl-2-furyl)-1-H-pyrazolo[3,4-b]pyridine] | −23 mm Hg | 60 min

Tested on: soluble guanylate cyclase
Assay: Stimulation of soluble guanylate cyclase in primary endothelial cells (intracellular cGMP)
Type: cell-based
Settings: primary rabbit aortic endothelial cells, test substance final concentration 1 μM, 10 min incubation, with or without NO donor (SNP 1 μM)
Method: as §1
Primary endothelial cells were isolated from rabbit aortas by treatment with collagenase soln. The cells were then cultured in culture medium at 37° C./5% CO2 until confluence was reached. For the investigations, the cells were passaged, inoculated into 24-hole cell culture plates and subcultured until reaching confluence (˜2×10^5 cells/hollow). For the stimulation of endothelial guanylate cyclase, the culture medium was aspirated and the cells were washed once with Ringer solution. After removing the Ringer solution, the cells were incubated for 10 minutes at 37° C./5% CO2 in stimulation buffer with or without NO donor (sodium nitroprusside, SNP, 1 μM). […] The supernatants containing the intracellular cGMP were then removed and the cGMP concentration was determined by means of the cGMP-SPA system (Amersham Buchler, Brunswick).

Structure (SMILES) | cGMP increase (%)
O=Cc1ccc(-c2nn(Cc3ccccc3F)c3nc(O)ccc23)o1 [Example 32] | 135%

Tested on: not given
Assay: not given
Settings: not given

Structure (SMILES) | melting point
[O-][S+](NCc1ccccc1)c1ccc(-c2nn(Cc3ccccc3F)c3ncccc23)o1 (centres unmarked) [Example 51] | 126 °C
CN1CCC([S+]([O-])c2ccc(-c3nn(Cc4ccccc4F)c4ncccc34)o2)CC1 (centres unmarked) [Example 52] | 279 °C
CCCCCCCCN[S+]([O-])c1ccc(-c2nn(Cc3ccccc3F)c3ncccc23)o1 (centres unmarked) [Example 53] | 69 °C
[O-][S+](c1ccc(-c2nn(Cc3ccccc3F)c3ncccc23)o1)N1CCOCC1 (centres unmarked) [Example 54] | 122 °C
CCCCCCN[S+]([O-])c1ccc(-c2nn(Cc3ccccc3F)c3ncccc23)o1 (centres unmarked) [Example 59] | 114 °C
[O-][S+](NC1CCCCCC1)c1ccc(-c2nn(Cc3ccccc3F)c3ncccc23)o1 (centres unmarked) [Example 60] | 161 °C
[O-][S+](NCc1cccc2ccccc12)c1ccc(-c2nn(Cc3ccccc3F)c3ncccc23)o1 (centres unmarked) [Example 63] | 158 °C
CC(N[S+]([O-])c1ccc(-c2nn(Cc3ccccc3F)c3ncccc23)o1)c1ccccc1 (centres unmarked) [Example 64] | 132 °C
[O-][S+](c1ccc(-c2nn(Cc3ccccc3F)c3ncccc23)o1)N1CCCC1 (centres unmarked) [Example 65] | 107 °C
[O-][S+](Nc1cccc(Cl)c1)c1ccc(-c2nn(Cc3ccccc3F)c3ncccc23)o1 (centres unmarked) [Example 66] | 110 °C

Second part, the molecule after the results:

melting point | Structure (SMILES)
165 °C | OCc1ccc(-c2nn(Cc3ccccc3)c3ncncc23)o1 [Example 34]
213 °C | Nc1ncnc2c1c(-c1ccc(CO)o1)nn2Cc1ccccc1 [Example 35]
207 °C | Nc1ncnc2c1c(-c1ccc(CO)o1)nn2Cc1ccccc1F [Example 36]
94 °C | CN(C)c1ncnc2c1c(-c1ccc(CO)o1)nn2Cc1ccccc1F [Example 37]
205 °C | Nc1nc(N)c2c(-c3ccc(CO)o3)nn(Cc3ccccc3F)c2n1 [Example 38]
225 °C | Nc1nc(-c2ccccc2)nc2c1c(-c1ccc(CO)o1)nn2Cc1ccccc1F [Example 39]
189 °C | O=CNc1nc(-c2ccccc2)nc2c1c(-c1ccc(CO)o1)nn2Cc1ccccc1F [Example 40]
106 °C | COCCOc1cnc2c(c1)c(-c1ccc(CO)o1)nn2Cc1ccccc1F [Example 42]
155 °C | Cc1cc(C)c2c(-c3ccc(CO)o3)nn(Cc3ccccc3)c2n1 [Example 43]
180 °C | Cc1nc2c(c(-c3ccc(CO)o3)nn2Cc2ccccc2)c(C)c1C [Example 44]
107 °C | CN(C)[S+]([O-])c1ccc(-c2nn(Cc3ccccc3F)c3ncccc23)o1 (centres unmarked) [Example 50]
136 °C | CC(C)N[S+]([O-])c1ccc(-c2nn(Cc3ccccc3F)c3ncccc23)o1 (centres unmarked) [Example 56]
138 °C | [O-][S+](NC1CC1)c1ccc(-c2nn(Cc3ccccc3F)c3ncccc23)o1 (centres unmarked) [Example 57]
109 °C | CC(C)CN[S+]([O-])c1ccc(-c2nn(Cc3ccccc3F)c3ncccc23)o1 (centres unmarked) [Example 58]
109 °C | CC(C)NS(=O)(=O)c1ccc(-c2nn(Cc3ccccc3F)c3ncccc23)o1 [Example 61]
106 °C | Cc1coc(-c2nn(Cc3ccccc3F)c3ncccc23)n1 [Example 67]
145 °C | Cc1nc(-c2nn(Cc3ccccc3F)c3ncccc23)oc1CO [Example 68]
